Calls of active or inactive are those of the source. No cut-off for these calls is given here.
Columns and labels:
Neutrophil = assay: Inhibition of elastase release in fMLF/CB-stimulated human neutrophil at 10 µM
[1] = Inhibition of fMLF/CB-induced superoxide anion generation in human neutrophil; type: functional, tissue-based
[2] = Inhibition of fMLF/CB-induced superoxide anion generation in human neutrophil at 10 uM relative to control; type: functional

IC50 [1] [µM] | Structure (SMILES) | inhibition (Neutrophil) | inhibition at 10 µM [2] [%]
5 | COc1ccc2c(=O)cc(Sc3cccc(F)c3)oc2c1 | inactive | 70.9
> 10 | COc1cccc(Oc2cc(=O)c3c(OC)cc(OC)cc3o2)c1 | inactive | 22.4
> 10 | COc1cccc(Oc2cc(=O)c3ccc(OC)cc3o2)c1 | inactive | 46.8
> 10 | COc1cc(OC)c2c(=O)cc(Oc3ccccc3OC)oc2c1 | inactive | 2.5
> 10 | COc1cc(OC)cc(Oc2cc(=O)c3c(OC)cccc3o2)c1 | inactive | -0.4
> 10 | COc1ccc2c(=O)cc(Oc3cccc(O)c3)oc2c1 | inactive | 6.9
7 | COc1cc(OC)c2c(=O)cc(Sc3cccc(F)c3)oc2c1 | inactive | 61
> 10 | COc1cc(OC)c2c(=O)cc(Oc3ccc(OC)c(OC)c3)oc2c1 | inactive | 7.8
> 10 | COc1ccc2oc(Sc3cccc(F)c3)cc(=O)c2c1 | inactive | 17.3
5.2 | COc1ccc2c(=O)cc(Oc3ccc(O)c(OC)c3)oc2c1 | inactive | 71.3
> 10 | COc1cc2oc(Sc3cccc(F)c3)cc(=O)c2c(OC)c1OC | inactive | 47.5
1.3 | O=c1cc(N2CCOCC2)oc2c(-c3ccccc3)cccc12 [LY-294002] | – | 93.4
> 10 | COc1cc(OC)cc(Oc2cc(=O)c3c(OC)cc(OC)cc3o2)c1 | inactive | 27.5
> 10 | COc1ccc(Oc2cc(=O)c3c(OC)cccc3o2)cc1OC | inactive | 12.8
> 10 | COc1ccc2c(=O)cc(Oc3ccccc3OC)oc2c1 | inactive | 3.8
> 10 | COc1cccc2oc(Sc3cccc(F)c3)cc(=O)c12 | inactive | 10.6
